# Laboratory results taken from patent US8680076B2, “Methods of treatment, improvement and prevention using haloaryl substituted aminopurines” (Signal Pharmaceuticals, LLC, priority 2010, dated 2014).
# Structures can show the parent of a compound that is named as a salt.
# Columns and labels:
# Assay type in all cases: in vivo
# CD-IGS rats = assay: Rat model of excisional wound healing; details: 0.5 mg/kg qd orally
# Procedure: Male CD-IGS rats (Strain code 001; n=32-52 per experiment) were obtained from Charles River Laboratories at a body weight of 175-195 g. Rats were housed in regular shoebox cages and allowed to become acclimated for a minimum of 1 week. Rats were fed Harlan Teklad (No. 7001) 4% mouse/rat diet and water ad libitum and were maintained on a 12-hour light/dark cycle.
# Suspensions of Compound JNKi-1 were prepared in aqueous 0.5% CMC and 0.25% Tween-80. The formulations were homogenized using a TEFLON® pestle and mortar (Potter-Elvehjem tissue grinder). Vehicle (aqueous solution of 0.5% carboxymethylcellulose, and 0.25% Tween-80) and test article compounds were dosed at a volume of 5 mL/kg. Groups of rats (n=4-8/group) were dosed orally with vehicle, Dexamethasone (0.5 mg/kg) or Compound JNKi-1 (10 mg/kg, 30 mg/kg or 60 mg/kg) daily throughout the study starting 4 days prior to the procedure and continuing for up to […]. Compound JNKi-1 treated groups and the respective vehicle control group were dosed twice daily (bid) with an 8 hr separation between the doses. Dexamethasone treated animals and the respective vehicle control group were dosed once daily (qd) for the duration of the study.
# Rats were anesthetized by inhaled isoflurane and the dorsal area was shaved and swabbed with 70% alcohol. Two points were marked 5.5 and 8.5 cm from the base of the skull along the midline. Four further points were marked 1 cm at either side of the midline, two at each of the marked points. These delineated the centers of four excisional wounds. The biopsy punch (6 mm diameter) was aligned vertically over the center of a mark and the epidermis, dermis and panniculus carnosus pierced by applying pressure and twisting at the same time. The skin plug was then removed. This was repeated for the remaining wounds (FIG. 15). The animal was then allowed to recover. All animals were housed singly during the experiment. Rats were monitored twice a day for the first 24 hours following the procedure and then daily until the end of the study. Body weights were recorded two or three times per week. Animals were sacrificed via CO2 asphyxiation at various time-points (day 1, 5, 10 or 14) following wounding.
# Each wound size was measured using an electronic digital caliper and the percent of wound remaining open was calculated relative to the initial wound size recorded on day 0 (day of wounding procedure). Four values were averaged for each animal (four wounds on each rat). Measurements were taken at different time-points throughout the study.
# Wounds and 2 mm of surrounding tissue were excised using an 8 mm biopsy punch. Wounds were harvested on days 1, 5, 10 and 14 following the procedure. Tissues were fixed in neutral buffered formalin for 3 h then transferred to 100% ethanol. Tissues were paraffin-embedded and four μm cross sections were cut and mounted on poly-lysine slides and stored in slide boxes at room temperature.
# One slide for each specimen was stained for H&E to assess granulation-tissue formation and re-epithelialization of the wound gap.
# Samples collected on day 10 and 14 were stained with Trichrome Stain (Masson) Kit (Sigma, HT15) to evaluate collagen deposition and remodeling.
# Tissue sections were deparaffinized and hydrated to deionized (DI) water. Sections were incubated in preheated Bouin' Solution (Sigma, HT10-132) at 56° C. overnight and then thoroughly rinsed in tap water. Sections were stained in Weigert's Iron Hematoxylin solution (Sigma, HT10-79) for 15 min, washed, and counterstained with Biebrich Scarlet Acid Fuchsin solution. After washing, sections were incubated with Phosphotungstic-Phosphomolybdic acid solution for 15 min and then stained with Aniline Blue solution. Sections were dehydrated and cleared in xylene.
# Wound healing was evaluated on day 10 and day 14 after the procedure. H&E sections were scored for re-epithelialization using the following criteria: […]
# Tsk-1 mice = assay: Tight skin-1 (Tsk-1) mouse model of systemic sclerosis; details: 50 mg/kg/day IP, 6 weeks
# Procedure: The antifibrotic effects of the JNK inhibitor Compound JNKi-1 were tested in a murine tight skin-1 (Tsk-1) model of systemic sclerosis. In this model, a dominant mutation in the fibrillin 1 gene (Fbn1^Tsk+/−) leads to a systemic sclerosis-like disease with inflammatory infiltrates and massive fibrosis of the skin (Akhmetshina A, Venalis P, Dees C, Busch N, Zwerina J, Schett G, et al., Treatment with imatinib prevents fibrosis in different preclinical models of systemic sclerosis and induces regression of established fibrosis, Arthritis Rheum. 2009; 60(1):219-24).
# Male and female TSK-1 mice were used. Mice were fed a standard diet with water ad libitum. The room temperature was kept constant at 22° C. with a humidity of 60%.
# Compound JNKi-1 was dissolved in 0.5% carboxymethylcellulose (CMC)/0.25% Tween 80 in water. As vehicle control a solution of 0.5% CMC/0.25% Tween 80 in water was used. Imatinib mesylate was dissolved in 0.9% NaCl at a concentration of 50 mg/kg/day in a total volume of 100 μL.
# Groups of Tsk-1 mice (n=4/sex/group) were assigned to one of five treatment groups: • Untreated wildtype (Fbn1^Tsk−/−) group received 0.5% CMC/0.25% Tween 80 in water orally (PO) twice daily (BID). • Untreated Fbn1Tsk+/− mice received 0.5% CMC/0.25% Tween 80 in water orally BID. • Compound JNKi-1-treated Fbn1^Tsk+/− received 50 mg/kg orally BID. • Compound JNKi-1-treated Fbn1^Tsk+/− received 150 mg/kg orally BID. • Imatinib mesylate-treated Fbn1^Tsk+/− group received 50 mg/kg/day administered intraperitoneally (IP).
# Treatments with Compound JNKi-1 and control compound were started at Week 4. After 6 weeks of treatment, mice were sacrificed, and the antifibrotic effects from each treatment were analyzed.
# Antifibrotic effects were determined by measuring the dermal thickness and quantifying the numbers of myofibroblasts in the lesional skin. Dermal thickness was determined by measuring the distance from the epidermal/dermal border to the dermal/subdermal border in H & E-stained sections at four different sites. The number of myofibroblasts was quantified by staining for alpha smooth muscle actin (α-SMA) in paraffin-embedded sections. Data are expressed as mean±standard error of the mean (SEM). SPSS17.0 software and the Mann-Whitney-U-test were used for statistical analyses. A p-value of less than 0.05 was considered statistically significant.
# [1] = system: DBA/2J mice, bleomycin-induced skin fibrosis; assay: Bleomycin-induced dermal fibrosis mouse model (preventive treatment); details: 50 mg/kg/day IP, mean±SEM
# Procedure: The selective JNK inhibitor Compound JNKi-1 was tested in a bleomycin-induced dermal fibrosis mouse model, which is considered to represent the early and inflammatory stages of systemic sclerosis (Akhmetshina A, Venalis P, Dees C, Busch N, Zwerina J, Schett G, Distler O, Distler J H, Treatment with imatinib prevents fibrosis in different preclinical models of systemic sclerosis and induces regression of established fibrosis, Arthritis Rheum. 2009; 60(1):219-24). […] In animal models it will similarly induce injury and fibrosis at the site of delivery.
# Male and female DBA/2J mice were used. Mice were fed a standard diet with water ad libitum. The room temperature was kept constant at 22° C. with a humidity of 60%.
# Compound JNKi-1 was dissolved in 0.5% carboxymethylcellulose (CMC)/0.25% Tween 80 in water. Bleomycin was dissolved in 0.9% sodium chloride (NaCl) at a concentration of 0.5 mg/mL in a total volume of 100 μL. The positive control compound Imatinib mesylate was dissolved in 0.9% NaCl at a concentration of 50 mg/kg/day in a total volume of 100 μL.
# Two different dose levels of the JNK-inhibitor Compound JNKi-1 (50 mg/kg and 150 mg/kg, administered twice daily) were used to analyze the anti-fibrotic activity in a mouse model of bleomycin-induced skin fibrosis. […] DBA/2J mice (n=5/sex/group) were assigned to one of five treatment groups: • Control group: 0.5% CMC/0.25% Tween 80 in water orally (PO) twice daily (BID) and subcutaneous injections of 100 μL 0.9% NaCl. • Untreated bleomycin group: intradermal injection of bleomycin and 0.5% CMC/0.25% Tween 80 in water orally BID. • 50 mg/kg Compound JNKi-1: intradermal injection of bleomycin and Compound JNKi-1 orally BID. • 150 mg/kg Compound JNKi-1: intradermal injection of bleomycin and Compound JNKi-1 orally BID. • Positive control group: intradermal injection of bleomycin and imatinib 50 mg/kg/day administered intraperitoneally (IP).
# Localized dermal fibrosis was induced by injection of bleomycin every other day for 3 weeks in defined areas of the upper back. Compound JNKi-1 or imatinib was administrated starting from the first dose of bleomycin.
# The dermal thickness was determined by staining with hematoxylin and eosin (H & E). The activated fibroblasts (myofibroblasts) at the fibrotic lesions were quantified by immunohistochemistry (IHC) for alpha smooth muscle actin (α-SMA). Collagen concentration in lesional skin was analyzed by hydroxyproline assay. Data are expressed as mean±standard error of the mean (SEM). SPSS17.0 software and the Mann-Whitney-U-test were used for statistical analyses. A p-value of less than 0.05 was considered statistically significant.
structure (smiles),measurement,setting,value
"C[C@@H]1C[C@H]2[C@@H]3CCC4=CC(=O)C=C[C@]4(C)[C@@]3(F)[C@@H](O)C[C@]2(C)[C@@]1(O)C(=O)CO [Dexamethasone, reference compound]",loss of initial body weight mass,CD-IGS rats,about 10%
same,wound gap remaining open at day 10 post wounding,CD-IGS rats,approximately 70%
"Cc1ccc(NC(=O)c2ccc(CN3CCN(C)CC3)cc2)cc1Nc1nccc(-c2cccnc2)n1 [imatinib mesylate, reference compound]",decrease of number of myofibroblasts,Tsk-1 mice,99%±15%
same,decrease of hypodermal thickness,Tsk-1 mice; compared to untreated mice,71%±7%
"Cc1ccc(NC(=O)c2ccc(CN3CCN(C)CC3)cc2)cc1Nc1nccc(-c2cccnc2)n1 [imatinib, reference compound]",reduction in dermal thickening,[1]; 3 weeks bleomycin,46%±5%
same,decrease of myofibroblast count,[1],51%±10%
